Columns and labels:
in vivo = settings: mouse
[1] = test system: breast cancer tumor specimens; experiment: ex vivo sensitivity of breast cancer fresh tissue sections to PU-H71; assay type: cell-based, human; settings: TNBC resistant (PT#14)
Description: From preliminary analyses we have learned that fresh tissue slicing provides a quick and more efficient ex vivo method for HSP90 inhibition evaluation than primary cell isolation. In addition, it preserves the cancer cells in the endogenous environment of the surrounding tissue. This is important since the interaction between stromal cells and tumor cells is known to play a major role in cancer growth and progression. In this method, the tissue (i.e. lesion) is placed in a plastic mold and embedded in 6% agarose. The agarose-embedded tissue is then mounted on the stage of the Vibratome that is submersed in a chilled reservoir (for tissue preservation) containing MEM with 1% penicillin/streptomycin. The tissue is then sliced using metal blades producing serial sections of the lesion that are 200 μm thick. Each section (minus the surrounding agarose-embedding media) is immediately placed in a 24-well tissue culture plate containing MEM with 1% penicillin/streptomycin. From a 5 mm×5 mm piece of tissue approximately 25 sections are produced. This allows for replicate analyses of tissue sections treated with a minimum of 4 doses of the HSP90 inhibitor and one with vehicle only. Replicates can be assayed by both IHC as well as viability assays (automatic plate reader or cytospin preparation) once tissue section undergoes enzymatic dissociation by brief exposure to dispase. […]

caspase-3,7 = experiment: caspase 3,7 activation assay in AML cell lines; assay type: cell-based; settings: 24 h
Experimental: A ten-fold, in MOLM-13 and M0-91, and two-fold, in Kasumi-1 and SKNO-1, increase in caspase-3,7 activation was observed as early as 24 h. Essentially no live cells were detected for the M0-91 cell line after 48 h of HSP90 inhibitor treatment. In the most sensitive cells, MOLM-13 and M0-91, apoptosis was associated with downregulation of the anti-apoptotic molecule Bcl-xL.
Cells were plated and treated as described in the growth inhibition assay section. Following a 24 h or 48 h exposure of cells to Hsp90 inhibitors, 100 μL buffer containing 10 mM Hepes, pH 7.5, 2 mM EDTA, 0.1% CHAPS, 0.1 mg/mL PMSF, Complete Protease Inhibitor mix (#1697498; Roche), and the caspase substrate Z-DEVD-R110 (#R22120; Molecular Probes) at 25 μM was added to each well. Plates were placed on an orbital shaker to promote cell lysis and reaction. The fluorescence signal of each well was measured in an Analyst GT (Molecular Dev ices) microplate reader (excitation 485 nm; emission at 530 nm). The percentage increase in caspase-3,7 activity was calculated by comparison of the fluorescence reading obtained from treated versus control cells. All experimental data were analyzed using SOFTmax Pro 4.3.1 and plotted using Prism 4.0 (Graphpad Software Inc., San Diego, Calif.).

359 kinases = experiment: scanMAX kinase screen (Ambit); assay type: binding; settings: 10 μM
MDA-MB-468 cells = experiment: apoptosis of MDA-MB-468 cells (Ethidium Bromide/Acridine Orange); assay type: cell-based, human; settings: 48 h
Description: As noted in FIG. 40B, several tumors are more sensitive to HSP90 inhibition than predicted from the preliminary data generated on cell lines.

[2] = PU-H71 tumor concentrations in MDA-MB-468 tumor-bearing mice (PET-predicted, simulated, LC-MS/MS); settings: 75 mg/kg 1× week
Raf-1, Akt [3] = experiment: pharmacodynamic analysis of MDA-MB-468 tumors (Western blot); assay type: in vivo, mice; settings: Mus musculus, MDA-MB-468, 24 h
[4] = mouse, in vivo
[5] = [124I]-PU-H71 PET in cancer patients, tumor exposure to PU-H71; assay type: in vivo, human
MDA-MB-468 tumors = experiment: efficacy study in MDA-MB-468 xenografted tumors; assay type: in vivo, mice; settings: 75 mg/kg, 1× week
Experimental: Mice (n=5) bearing MDA-MB-468 tumors reaching a volume of 100-150 mm^3 were treated i.p. (i.p.) using different doses and schedules, as indicated. Tumor volume was determined by measurement with Vernier calipers, and tumor volume was calculated as the product of its length×width^2×0.4. Tumor volume was expressed on indicated days as the median tumor volume ±SD indicated for groups of mice. Percent (%) tumor growth inhibition values were measured on the final day of study for drug-treated compared with vehicle treated mice and are calculated as 100×{1−[(TreatedFinal day−TreatedDay 1)/(ControlFinal day−ControlDay 1)]}. Tumor regression values were determined by calculating the ratio of median tumor volumes at the time when treatment was initiated to median tumor volume on the final day of study for a given treatment group. Percent (%) tumor regression is 100×[1−(TreatedFinal day/TreatedDay 1)].

p-AKT, p-STAT5 = experiment: pharmacodynamic study in M0-91 tumors xenografted in mice; assay type: in vivo
Experimental: We next analyzed the pharmacodynamic effects of HSP90 inhibition in both HEL and M0-91 tumors xenografted in mice. Unlike the cultured cells, the use of the in vivo model allows real-time monitoring of HSP90-dependent pathways inhibition.
Four- to 6-week-old nu/nu athymic female mice were obtained from Taconic Farms. Experiments were carried out under an Institutional Animal Care and Use Committee-approved protocol, and institutional guidelines for the proper and humane use of animals in research were followed. HEL and M0-91 cells were subcutaneously implanted in the right flank of mice using a 20-gauge needle and allowed to grow. […] For this assay, tumors were allowed to reach 6-8 mm in diameter before treatment. […] Tumors were homogenized and proteins analyzed by western blot as described above.

Raf-1, Akt [6] = experiment: onco-client protein degradation in MDA-MB-468 cells (Western blot); assay type: cell-based; settings: Homo sapiens, in vitro, 24 h
HSP90 = experiment: 131I-PU-H71 saturation binding in intact cancer cells; assay type: cell-based
Description: The solutions were shaken in an orbital shaker and after 1 hr the cells were isolated and washed with ice cold Tris-buffered saline using a Brandel cell harvester. […] To calculate the percentage of HSP90, cellular HSP90 expression was quantified by using standard curves created of recombinant HSP90 purified from HeLa cells (Stressgen#ADI-SPP-770).

CC(C)NCCCn1c(Sc2cc3c(cc2I)OCO3)nc2c(N)ncnc21 [PU-H71]
concentration at 24 h (in vivo; in vivo, 5 mg/kg): 430 nM
concentration at 24 h (in vivo; tumor, 5 mg/kg): 370 nM
concentration at 24 h (in vivo; tumor, 25 mg/kg): 1830 nM
concentration at 24 h (in vivo; tumor, 50 mg/kg): 3670 nM
concentration at 48 h (in vivo; tumor, 75 mg/kg): 3500 ± 270 nM
concentration at 96 h (in vivo; tumor, 75 mg/kg): 1290 ± 290 nM
concentration at 120 h (in vivo; tumor, 75 mg/kg): 690 ± 250 nM
apoptosis [1]: no apoptosis noted at any of the tested concentrations
increase in caspase-3,7 activation (caspase-3,7; Kasumi-1 and SKNO-1): two-fold
increase in caspase-3,7 activation (caspase-3,7; MOLM-13 and M0-91): ten-fold
kinase hits (359 kinases): Only SNARK (NUAK family SNF1-like kinase 2)
cells undergoing apoptosis (MDA-MB-468 cells; 0.5 μM): about 50%
cells undergoing apoptosis (MDA-MB-468 cells; about 5 μM): about 100%
actual tumor concentration by LC-MS/MS ([2]; 24 h after last dose): 5.53±0.26
actual tumor concentration by LC-MS/MS ([2]; 96 h after last dose): 3.09±1.40
EC50 (Raf-1, Akt [3]; read-out: EC50 Akt, tumor concentration by PET vs pharmacodynamic effect): 90 ± 80 nM
EC50 (Raf-1, Akt [3]; read-out: EC50 Raf-1, tumor concentration by PET vs pharmacodynamic effect): 240 ± 30 nM
AUC tumor relative to AUC blood [4]: 15 fold
area under the blood time-activity concentration curve [4]: 0.78 % ID/g-h
area under the tumor time-activity concentration curve [4]: 11.4 % ID/g-h
tumor AUC0-336h ([5]; 10 mg/m^2 once a week for two weeks): 54 μM-h
tumor exposure ([5]; left lung, 80 mg/m2 2× week): above 760 uM-h
anti-tumor effect (MDA-MB-468 tumors): significant tumor growth inhibition
duration of apoptosis after one dose (p-AKT, p-STAT5): 96 h
EC50 (Raf-1, Akt [6]; read-out: EC50 Akt, onco-client protein degradation): 150 ± 20 nM
EC50 (Raf-1, Akt [6]; read-out: EC50 Raf-1, onco-client protein degradation): 130 ± 20 nM
fraction of total cellular HSP90 bound (HSP90; K562 and other established t(9;22)+ CML cell lines): 10.3-23%
fraction of total cellular HSP90 bound (HSP90; MDA-MB-468 cells): approximately 30%
